From patent US11918582B2 (RAPT Therapeutics, Inc., priority 2021, dated 2024)
Where a name gives a salt, the structure may show the parent alone.

Biological target: T1, human HPK1 (MAP4K1) (Homo sapiens, UniProt Q92918)
T1 construct: Recombinant human HPK1 kinase domain was obtained from ThermoFisher (Cat. #PV6357) and SignalChem (Cat. #M23-11G); purchased ThermoFisher; SignalChem PV6357; M23-11G
T1 sequence (Q92918 17-274 limits assumed): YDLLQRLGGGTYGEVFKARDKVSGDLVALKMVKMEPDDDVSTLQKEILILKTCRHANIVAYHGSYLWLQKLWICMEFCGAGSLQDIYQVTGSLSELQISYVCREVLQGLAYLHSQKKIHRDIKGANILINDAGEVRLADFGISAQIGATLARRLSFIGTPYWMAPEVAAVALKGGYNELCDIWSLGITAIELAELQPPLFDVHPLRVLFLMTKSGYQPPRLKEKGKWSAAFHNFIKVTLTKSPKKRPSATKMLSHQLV
Assay: Biochemical assay for activity against HPK1 (ADP-Glo, MBP substrate)
Details: recombinant human HPK1 kinase domain, 1 nM enzyme, ADP-Glo luminescence
Text: These compounds are made by the synthetic methods described earlier herein. Example 227 Biochemical Assay for Testing Compounds for Activity against HPK1
The enzymatic activity of human HPK1 (MAP4K1) was monitored in a biochemical assay in the presence or absence of compounds, using a peptide substrate (myelin basic protein, MBP), with an ADP-Glo assay kit (Promega, Cat. #V9103). An increase in phosphorylation of the peptide by HPK1 was indicative of its kinase activity.
Recombinant human HPK1 kinase domain was obtained from ThermoFisher (Cat. #PV6357) and SignalChem (Cat. #M23-11G). A 1 nM HPK1 kinase enzyme solution was prepared from the HPK1 stock received from the commercial supplier using an assay buffer containing 50 mM HEPES (4-(2-hydroxyethyl)-1-piperazineethanesulfonic acid) pH 7.5 (Fisher Scientific, Cat. #H1035), 150 mM NaCl (Fisher Scientific, Cat. #50843067), 3 mM TCEP-HCl (Tris(2-carboxyethyl)phosphine hydrochloride; Fisher Scientific, Cat. #PIPG82080), 10 mM MgCl2 (Fisher Scientific, Cat. #AM9530G), 0.005% Tween-20 (Fisher Scientific, Cat. #BP337500) and 0.01% BSA (bovine serum albumin; ThermoFisher, Cat. #15260037), in ultra-pure water. The final concentration of the assay buffer was 770 nM. A 5 mM stock solution of the peptide substrate was prepared using […] MBP (Myelin Basic Protein, Active Motif, Cat. #31314), 10 mM ATP (adenosine 5′-triphosphate; Sigma-Aldrich, Cat. #GE27-2056-01) and of assay buffer.
Test compounds were dissolved in DMSO (dimethyl sulfoxide) at 10 mM and then serial dilutions were prepared using a ViaFlow assist multichannel dispenser (Integra ViaFlo). 20 nL of test compounds at various concentrations were dispensed into a 1536-well assay plate (Corning Cat. #7247) using an Echo Nanoliter dispenser (Labcyte ECHO 550). […] of a 1 nM solution of HPK1 kinase enzyme diluted in assay buffer was added to the compound-containing plate using a Mantis Microliter dispenser (Formulatrix Mantis), covered with a lid, and incubated for 15 minutes at room temperature. 50 nL of a 5 mM stock solution of the peptide substrate (MBP) were added using the Echo Nanoliter dispenser. The plate was covered with a lid, centrifugated at 500 rpm for 1 minute and incubated for 2 hours at room temperature. […] of ADP-Glo reagent A was added using the Mantis Microliter dispenser, centrifugated at 500 rpm for 30 seconds and incubated for 40 minutes at room temperature. […] of ADP-Glo reagent B was added using the Mantis Microliter dispenser, centrifugated at 500 rpm for 30 seconds and incubated for 30 minutes at room temperature. Peptide phosphorylation was measured by luminescence on an Envision plate reader (PerkinElmer).
The HPK1 biochemical IC50 activity levels of the compounds of Examples 1-225 were tested using this assay and are shown in Table 2.

| SMILES | IC50 |
| --- | --- |
| COc1cc2c(cc1Nc1ncc3cnn(C[C@@H]4CCC[C@H]4C(N)=O)c3n1)CN(C)CC2 (racemic) [Example 159, racemic trans-2-[[6-[(6-methoxy-2-methyl-3,4-dihydro-1H-isoquinolin-7-yl)amino]pyrazolo[3,4-d]pyrimidin-1-yl]methyl]cyclopentanecarboxamide] | < 100 nM |
| COC[C@H]1CC[C@H](n2ncc3cnc(Nc4cc5c(cc4OC)CCN(C)C5)nc32)CC1 [Example 175, 6-methoxy-N-[trans-1-[4-(methoxymethyl)cyclohexyl]pyrazolo[3,4-d]pyrimidin-6-yl]-2-methyl-3,4-dihydro-1H-isoquinolin-7-amine] | < 100 nM |
| COc1cc2c(cc1Nc1ncc3c(C(F)(F)F)nn(C(C)C)c3n1)CN(C)CC2 [Example 7, N-(1-isopropyl-3-(trifluoromethyl)-1H-pyrazolo[3,4-d]pyrimidin-6-yl)-6-methoxy-2-methyl-1,2,3,4-tetrahydroisoquinolin-7-amine] | < 100 nM |
| COc1cc2c(cc1Nc1ncc3cnn([C@H]4CC[C@H](NC(=O)CO)CC4)c3n1)CN(C)CC2 [Example 74, trans-2-hydroxy-N-[4-[6-[(6-methoxy-2-methyl-3,4-dihydro-1H-isoquinolin-7-yl)amino]pyrazolo[3,4-d]pyrimidin-1-yl]cyclohexyl]acetamide] | < 100 nM |
| COc1cc2c(cc1Nc1ncc3cnn(C[C@@H]4[C@@H](F)CCN4C(C)=O)c3n1)CN(C)CC2 [Example 213, 1-[(2R,3S)-3-fluoro-2-[[6-[(6-methoxy-2-methyl-3,4-dihydro-1H-isoquinolin-7-yl)amino]pyrazolo[3,4-d]pyrimidin-1-yl]methyl]pyrrolidin-1-yl]ethanone] | < 100 nM |
| COc1cc2c(cc1Nc1ncc3cnn([C@H]4C[C@H](CO)C4)c3n1)CN(C)CC2 [Example 65, trans-[3-[6-[(6-methoxy-2-methyl-3,4-dihydro-1H-isoquinolin-7-yl)amino]pyrazolo[3,4-d]pyrimidin-1-yl]cyclobutyl]methanol] | < 100 nM |
| COc1cc2c(cc1Nc1ncc3cnn(C[C@@H]4C[C@H](C(F)(F)F)CN4C(C)=O)c3n1)CN(C)CC2 [Example 144, 1-[(2S,4S)-2-[[6-[(6-methoxy-2-methyl-3,4-dihydro-1H-isoquinolin-7-yl)amino]pyrazolo[3,4-d]pyrimidin-1-yl]methyl]-4-(trifluoromethyl)pyrrolidin-1-yl]ethan-1-one] | 100 to 250 nM |
| COc1cc2c(cc1Nc1ncc3cnn(C[C@@H]4CCCN4C(C)=O)c3n1)CN(CCO)CC2 [Example 194, (S)-1-(2-((6-((2-(2-hydroxyethyl)-6-methoxy-1,2,3,4-tetrahydroisoquinolin-7-yl)amino)-1H-pyrazolo[3,4-d]pyrimidin-1-yl)methyl)pyrrolidin-1-yl)ethan-1-one] | < 100 nM |
| COc1cc2c(cc1Nc1ncc3cnn(C[C@@H]4CCCN4C(C)=O)c3n1)[C@@H](C)N(C)CC2 [Example 184, 1-((S)-2-((6-(((R)-6-methoxy-1,2-dimethyl-1,2,3,4-tetrahydroisoquinolin-7-yl)amino)-1H-pyrazolo[3,4-d]pyrimidin-1-yl)methyl)pyrrolidin-1-yl)ethan-1-one] | < 100 nM |
| COc1cc2c(cc1Nc1ncc3cnn(C[C@@H]4C[C@@H]4F)c3n1)CN(C)CC2 (racemic) [Example 207, N-(1-(((cis)-2-fluorocyclopropyl)methyl)-1H-pyrazolo[3,4-d]pyrimidin-6-yl)-6-methoxy-2-methyl-1,2,3,4-tetrahydroisoquinolin-7-amine] | < 100 nM |
| COc1cc2c(cc1Nc1ncc3c(C)nn(C[C@@H]4CCCN4C(C)=O)c3n1)CN(C)CC2 [Example 115, (S)-1-(2-((6-((6-methoxy-2-methyl-1,2,3,4-tetrahydroisoquinolin-7-yl)amino)-3-methyl-1H-pyrazolo[3,4-d]pyrimidin-1-yl)methyl)231yrrolidine-1-yl)ethan-1-one] | 100 to 250 nM |
| COc1cc2c(cc1Nc1ncc3cnn(C4CCC(C)(CO)CC4)c3n1)CN(C)CC2 (mixture of isomers) [Example 75, [4-[6-[(6-methoxy-2-methyl-3,4-dihydro-1H-isoquinolin-7-yl)amino]pyrazolo[3,4-d]pyrimidin-1-yl]-1-methyl-cyclohexyl]methanol] | > 251 nM |
| COc1nc2c(cc1Nc1ncc3cnn(C[C@@H]4CC[C@@H](C)N4C(C)=O)c3n1)CN(C)CC2 [Example 173, 1-[(2S,5R)-2-[[6-[(2-methoxy-6-methyl-7,8-dihydro-5H-1,6-naphthyridin-3-yl)amino]pyrazolo[3,4-d]pyrimidin-1-yl]methyl]-5-methyl-pyrrolidin-1-yl]ethenone Methanesulfonic Acid] | < 100 nM |
| CC(=O)N1CCC[C@H]1Cn1ncc2cnc(Nc3ccc4c(c3)CN(C)CC4)nc21 [Example 139, (S)-1-(2-((6-((2-methyl-1,2,3,4-tetrahydroisoquinolin-7-yl)amino)-1H-pyrazolo[3,4-d]pyrimidin-1-yl)methyl)pyrrolidin-1-yl)ethan-1-one] | < 100 nM |
| CN1CCc2c(cc(Nc3ncc4cnn([C@H]5CC[C@@H](O)CC5)c4n3)cc2C(F)(F)F)C1 [Example 179, (1s,4s)-4-(6-((2-methyl-5-(trifluoromethyl)-1,2,3,4-tetrahydroisoquinolin-7-yl)amino)-1H-pyrazolo[3,4-d]pyrimidin-1-yl)cyclohexan-1-ol] | < 100 nM |
| COc1cc2c(cc1Nc1ncc3cnn([C@H]4CCN(C(C)=O)C[C@H]4C)c3n1)CN(C)CC2 [Example 210, 1-((3R,4S)-4-(6-((6-methoxy-2-methyl-1,2,3,4-tetrahydroisoquinolin-7-yl)amino)-1H-pyrazolo[3,4-d]pyrimidin-1-yl)-3-methylpiperidin-1-yl)ethan-1-one] | < 100 nM |
| COc1cc2c(cc1Nc1ncc3cnn(CC4(F)CC4)c3n1)CN(C)CC2 [Example 204, N-(1-((1-fluorocyclopropyl)methyl)-1H-pyrazolo[3,4-d]pyrimidin-6-yl)-6-methoxy-2-methyl-1,2,3,4-tetrahydroisoquinolin-7-amine] | < 100 nM |
| CCN1CCc2cc(OC)c(Nc3ncc4cnn([C@H]5CC[C@H](CO)CC5)c4n3)cc2C1 [Example 168, [4-[6-[(2-ethyl-6-methoxy-3,4-dihydro-1H-isoquinolin-7-yl)amino]pyrazolo[3,4-d]pyrimidin-1-yl]cyclohexyl]methanol] | < 100 nM |
| COc1cc2c(cc1Nc1ncc3cnn(CCNS(C)(=O)=O)c3n1)CN(C)CC2 [Example 88, N-[2-[6-[(6-methoxy-2-methyl-3,4-dihydro-1H-isoquinolin-7-yl)amino]pyrazolo[3,4-d]pyrimidin-1-yl]ethyl]methanesulfonamide] | < 100 nM |
| CN1CCc2ccc(Nc3ncc4cnn([C@H]5CC[C@H](C(=O)O)CC5)c4n3)cc2C1 [Example 32, (1r,4r)-4-(6-((2-methyl-1,2,3,4-tetrahydroisoquinolin-7-yl)amino)-1H-pyrazolo[3,4-d]pyrimidin-1-yl)cyclohexane-1-carboxylic acid] | < 100 nM |
| COc1cc2c(cc1Nc1ncc3cnn(C[C@@H]4[C@H](C)CCN4C(C)=O)c3n1)CN(C)CC2 [Example 189, 1-((2S,3R)-2-((6-((6-methoxy-2-methyl-1,2,3,4-tetrahydroisoquinolin-7-yl)amino)-1H-pyrazolo[3,4-d]pyrimidin-1-yl)methyl)-3-methylpyrrolidin-1-yl)ethan-1-one] | < 100 nM |
| CN1CCc2ccc(Nc3ncc4cnn([C@H]5CCCNC5)c4n3)cc2C1 [Example 17, (S)-2-methyl-N-(1-(piperidin-3-yl)-1H-pyrazolo[3,4-d]pyrimidin-6-yl)-1,2,3,4-tetrahydroisoquinolin-7-amine hydrochloride] | < 100 nM |
